# Reference: US20160082105A1, “Antibody Buffering of a Ligand in Vivo” (ARROWSMITH TECHNOLOGIES CORPORATION, priority 2004, published 2016)
# Like-named read-outs stand apart in the source and are kept apart here.
# Columns and labels:
# [1] = Source text: Male Sprague-Dawley rats (300 g) were obtained from Zivic Laboratories, Inc. (Zelienople, Pa.). Each rat underwent surgery to place a cannula in the right lateral ventricle for injections and a second cannula in the cisterna magna for cerebral spinal fluid (CSF) sampling. Briefly, the rat was anesthetized with 2.5% isoflurane and fixed in a stereotaxic device. Normal body temperature was maintained through a heating pad. A linear midline incision exposed the frontal, parietal, and occipital bones. The lateral ventricle was located using the coordinates (1.8 mm posterior, 3.8 mm lateral, and 4 mm ventral from bregma) obtained from a stereotaxic atlas of the rat (Paxinos et al. The Rat Brain in Stereotaxic Coordinates (Academic Press 1998)). A hole was drilled through the skull, a cannula was inserted, and it was fixed to the skull using VetBond (3M, Minneapolis, Minn.) and dental cement. […] The cannula was inserted to a depth of 2 mm below the bottom of the skull and fixed with VetBond and dental cement. Screw-capped cannula dummy wires were inserted into the cannula guides to maintain a closed system. Rats were allowed to recover for at least 24 hours before ventricular injection.
# For experiments for which injections and withdrawals of CSF were done via the same site in the cisterna magna (CM), male Sprague-Dawley rats (250 g) were obtained from Charles River Laboratories (Wilmington, Mass.). […] Rats were allowed to rest no more than three days after arrival prior to experimentation to reduce the risk of cannula blockage.
# (§1) Samples were prepared for injection: 104 pmol anti-Ox antibody and 52 pmol Ox; 104 pmol of D1.3 control antibody and 52 pmol Ox; and 52 pmol Ox alone. Each sample was diluted to 10 μl with sterile PBS. The samples were warmed to 37° C., and then infused over 1 minute through the intraventricular or cisternal cannula in Sprague-Dawley rats. The end of the infusion was designated as time zero (0). At various timepoints, 10 μl of CSF was withdrawn. For one set of rats, the 10 μl CSF was counted directly by placing it into 5 ml of Scintiverse II and counting in a Beckman LS6500 Scintillation Counter. For another set of rats, the 10 μl CSF was diluted into 100 μl ice cold PBS and used in bound vs. free Ox experiments described below.
# (§2) Samples of NQ11/7.12 and Ox were prepared and infused into the cisternal cannula of Sprague-Dawley rats from Charles River Laboratories as described above for the antibody buffering protocol. Ten μl of CSF was taken from the cisterna magna at time 1, 10, 20, 30, 60, 90 and 120 minutes. The 10 μl CSF samples were either counted directly or diluted into 100 μl ice cold PBS and loaded onto a 187.1 column to separate bound and free Ox. At 24 hours and at 48 hours following the first administration, 52 pmol Ox in 10 μl total volume (diluted with sterile PBS) was infused over 1 minute through the cisterna magna cannula. Timepoints were again taken and analyzed as above.
# To determine the pharmacokinetic behavior of Ox in the CSF, tritiated Ox was infused into a rat through its intraventricular cannula, and elimination of Ox was followed through CSF sampling from the cisterna magna (CM) cannula. Sampling was done from the cisterna magna because it is the largest CSF compartment. Its location between the cerebellum and the upper brain stem and its large size make it relatively easy to access CSF for sampling and scintillation counting (van den Berg et al., J. Neurosci. Methods 116:99-107 (2002)).
# [2] = remark: listed apart in the source
# Procedure: as §1
# The rat anti-mouse kappa antibody 187.1 (obtained from American Type Culture Collection (ATCC), Manassas, Va.) (Yelton et al., Hybridoma 1:5-11 (1981)) was isolated from spent culture medium and purified by passage over a Protein A-Sepharose affinity column. Ten grams of CNBr-activated Sepharose 4 Fast Flow (Amersham Biosciences) were washed and coupled with 187.1 according to manufacturer's protocol. Two mg 187.1 per 10 g of swelled resin were used.
# During the antibody buffering experiments, the CSF plus ice cold PBS sample were loaded onto the 187.1 column immediately after the dilution. Application to the column of 3 ml of PBS in 0.5 ml increments was followed by application of 3 ml of 0.2 M glycine (pH 2.5) in 0.5 ml increments. All the PBS fractions and all the glycine fractions were collected separately for each timepoint and dried down in the SpeedVac. The residue was resuspended in 150 μl PBS and then transferred to a scintillation vial with 5 ml Scintiverse II for counting.
# as §2
# The principle of chemical equilibrium predicts that the Ox in the CSF should partition between free and antibody-bound forms, and that the free pool should be constantly replenished, staying at a concentration near the antibody's Kd. The Ox in the CSF samples from another set of rats was separated into bound and free forms by passage over an affinity column. […] Antibody-Ox complexes bound to the immobilized rat anti-mouse kappa antibody while free Ox eluted from the column with the PBS wash (free Ox fraction).
# [3] = Ox alone re-administered at 24 hours and 48 hours after a single NQ11/7.12 + Ox cisternal infusion
# [4] = Ox administered alone or with D1.3
compound,measurement,setting,value
"O=C(O)CCCNC=C1N=C(c2ccccc2)OC1=O [Ox, 2-phenyl-oxazol-5-one-γ-amino butyrate]",Ox elimination half-life from the cisterna magna,"[1]; Ox alone (no NQ11/7.12), intraventricular infusion, cisternal CSF sampling",1.2 min
same,"total Ox pharmacokinetic lifetime in CSF, long term buffering",[1]; [3],kinetic profile between the profile observed when Ox was initially administered with NQ11/7.12 and the profile of Ox when administered with D1.3
same,Ox elimination half-life from CSF,"[1]; Ox co-administered with control antibody D1.3, cisternal infusion",1.0 min
same,Ox elimination half-life from CSF,"[1]; Ox co-administered with twice the molar amount of NQ11/7.12, cisternal infusion",10 min
same,time of peak Ox concentration in the cisterna magna,"[1]; Ox with twice the molar amount of NQ11/7.12, intraventricular infusion",around 5 minutes
same,peak Ox concentration in the cisterna magna,"[1]; Ox without antibody buffer, intraventricular infusion",never attained a peak concentration
same,"increase in Ox half-life in CSF, NQ11/7.12 vs D1.3",[1]; cisternal infusion,ten-fold
same,decrease of free Ox concentration in CSF in an hour,[2]; [4],500 fold
same,free Ox elimination half-life in CSF,[2]; [4],0.61 min
same,initial free Ox concentration in CSF,[2]; [4],1.4 mM
same,decrease of free Ox concentration in CSF over time,[2]; Ox administered with NQ11/7.12,less than 10 fold
same,free Ox concentration in CSF after the decrease,[2]; Ox administered with NQ11/7.12,approximately 6 nM
same,free Ox elimination half-life in CSF,[2]; Ox administered with NQ11/7.12,1.55 min
same,initial free Ox concentration in CSF,[2]; Ox administered with NQ11/7.12,6e-05 mM
same,"free Ox elimination in CSF, long term buffering",[2]; [3],slower elimination profile than Ox administered with D1.3
